The test system of series [1] is Leishmania infantum. Nature of the series: Leishmanicidal activity against promastigote form of Leishmania infantum PB75 after 48 hrs by modified colorimetric method. The class given is functional. To be noted: PB75, 48 h.
The nature of series [2]: Cytotoxicity against CHO cells assessed as cell viability after 48 hrs by MTT colorimetric assay. The class given is cell-based, Cricetulus griseus. To be noted: chinese hamster.
Series [3] deals with Trypanosoma cruzi. Briefly: Antitrypanosomal activity against epimastigote form of Trypanosoma cruzi Y after 72 hrs by modified MTT colorimetric assay. The class given is functional.
Series [4] relates to CHO. Nature of the series: Cytotoxicity against CHO cells assessed as cell viability at 1 to 100 ug/ml after 48 hrs by MTT colorimetric assay. Type of series: cell-based, Cricetulus griseus. To be noted: chinese hamster.
Series [5] has as its system Trypanosoma cruzi. Briefly: Antitrypanosomal activity against epimastigote form of Trypanosoma cruzi Y at 1 to 100 ug/ml after 72 hrs by modified MTT colorimetric assay. The class given is functional, organism-based.

In brackets after ≈: the same amount, converted by molar mass. Activity calls are given as the source filed them. The calls are words filed in the database; no cut-off is given here. Bounds are passed on as bounds.

On to `COc1cc(O)c2c(c1)[C@]13CCN4CC[C@H](C[C@@H]1N2C(C)=O)C1=CCO[C@]143`, for which the GI50 in series [1] was > 100 µg/mL.

Consider `C/C=C1/C(=O)[C@@]23CCN(C)CC[C@H]1C[C@@H]2N(C(C)=O)c1c3ccc(OC)c1O`, for which the GI50 in series [1] was > 100 µg/mL. Turning to `C[C@@H]1[C@H](O)[C@@H](C)/C=C/C=C/C=C/C=C/C=C/C=C/C=C/[C@H](O[C@@H]2O[C@H](C)[C@@H](O)[C@H](N)[C@@H]2O)C[C@@H]2O[C@](O)(C[C@@H](O)C[C@@H](O)[C@H](O)CC[C@@H](O)C[C@@H](O)CC(=O)O[C@H]1C)C[C@H](O)[C@H]2C(=O)O` [AMPHOTERICIN B], the GI50 at 48 h in series [2] is 10.3 µg/mL (≈ 11.1 µM).

The compound `CCCC(=O)N1c2c(O)cccc2[C@]23CCN4CC[C@H](C[C@H]12)C1=CCO[C@]143` came in with a GI50 in series [1] of 52.2 µg/mL (≈ 142 µM). Turning to `COc1ccc2c(c1O)N(C(C)=O)[C@H]1C[C@@H]3CCN(C)CC[C@@]21C(=O)[C@]31O[C@H]1C`, the GI50 in series [1] is > 100 µg/mL. With `C/C=C1\C(=O)[C@@]23CCN(C)CC[C@H]1C[C@@H]2N(C(C)=O)c1c3ccc(OC)c1O`, the GI50 in series [1] was > 100 µg/mL.

`CC1CS(=O)(=O)CCN1/N=C/c1ccc([N+](=O)[O-])o1` (stereo not drawn) [NIFURTIMOX]: the GI50 at 48 h in series [2] worked out at 13.9 µg/mL (≈ 48.4 µM). For `CC(=O)N1c2c(O)cccc2[C@]23CCN4CC[C@H](C[C@H]12)C1=CCO[C@]143` [GEISSOSPERMIDINE], the GI50 in series [1] is > 100 µg/mL. Take `CC[C@@]12CCCN3CC[C@]4(c5cccc(O)c5N(C(C)=O)[C@@H]4CC1)[C@H]32`: the concentration for 50% growth inhibition (GI50) in series [3] amounted to 41.7 µg/mL (≈ 122 µM); in series [1], 7.7 µg/mL (≈ 22.6 µM). Moreover, the GI50 at 48 h in series [2] is 16.7 µg/mL (≈ 49.1 µM). As for `CCc1ccc2c3[nH]c4ccccc4c3cc[n+]2c1.[Cl-]` [FLAVOPEREIRINE], in series [4], the Activity result is “Toxic”. Besides, the result in series [5] was Active.

These data come from ChEMBL document CHEMBL2046438, “Indole alkaloids from Geissospermum reticulatum” (J Nat Prod, 2012).
